From article PMC6434079, “Time-dependent inhibition of PHD2” (Bioscience Reports, 2017) come the findings set out here.

pIC50, pKi: −log10 of the molar value. Read-outs that look alike come from different tables or passages of the source. Bounds are passed on as bounds.

Assay [1] has as its target T1, PHD1 (Homo sapiens, UniProt Q96KS0). The assay is described as follows: PHD1 IC50 determination (LC/MS/MS, selectivity screening). The class given is biochemical.
Assay [2] deals with T2, PHD3 (Homo sapiens, UniProt Q9H6Z9). The assay is described as follows: PHD3 IC50 determination (LC/MS/MS, selectivity screening). The class given is biochemical.
T2 sequence (Q9H6Z9 whole entry): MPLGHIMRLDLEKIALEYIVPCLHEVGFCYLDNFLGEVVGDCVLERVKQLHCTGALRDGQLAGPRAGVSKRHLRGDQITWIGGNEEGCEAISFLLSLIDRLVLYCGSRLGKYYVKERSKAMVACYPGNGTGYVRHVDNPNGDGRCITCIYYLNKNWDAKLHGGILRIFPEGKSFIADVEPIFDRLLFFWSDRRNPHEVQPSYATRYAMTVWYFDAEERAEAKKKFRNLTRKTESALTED
Assay [3] addresses T1, PHD1. The conditions noted are these: read-out: Km for 2-OG, PHD1; 1 μM peptide, 1 mM ascorbic acid, 50 nM enzyme.
Assay [4] concerns the target T2, PHD3. The following applies: read-out: Km for 2-OG, PHD3; 1 μM peptide, 1 mM ascorbic acid, 40 nM enzyme.
In assay [5] the target is T3, FIH1 (Homo sapiens, UniProt Q9NWT6). The conditions noted are these: read-out: Km for 2-OG, FIH1; 1 μM peptide, 1 mM ascorbic acid, 15 nM enzyme.
T3 sequence (Q9NWT6 whole entry): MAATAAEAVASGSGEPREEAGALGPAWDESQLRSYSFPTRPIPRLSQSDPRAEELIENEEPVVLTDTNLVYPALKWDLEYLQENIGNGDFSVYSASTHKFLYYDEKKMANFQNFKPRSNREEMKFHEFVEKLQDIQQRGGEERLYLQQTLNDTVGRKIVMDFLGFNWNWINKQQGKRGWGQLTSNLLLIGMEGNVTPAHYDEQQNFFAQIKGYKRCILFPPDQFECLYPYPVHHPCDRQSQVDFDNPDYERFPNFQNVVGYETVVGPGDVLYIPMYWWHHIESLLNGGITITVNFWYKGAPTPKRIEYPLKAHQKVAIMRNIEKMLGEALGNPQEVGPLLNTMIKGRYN
The target of assay [6] is T3, FIH1. Briefly: FIH1 IC50 determination (LC/MS/MS, selectivity screening).
In assay [7] the target is PHD2 (Homo sapiens, UniProt Q9GZT9). The assay is described as follows: Mechanism of inhibition and Ki determination at increasing 2-OG concentrations. The conditions noted are these: for mechanism of inhibition of PHD2: IC50 increases linearly with increasing 2-OG concentration.
Sequence of PHD2 (Q9GZT9 180-417): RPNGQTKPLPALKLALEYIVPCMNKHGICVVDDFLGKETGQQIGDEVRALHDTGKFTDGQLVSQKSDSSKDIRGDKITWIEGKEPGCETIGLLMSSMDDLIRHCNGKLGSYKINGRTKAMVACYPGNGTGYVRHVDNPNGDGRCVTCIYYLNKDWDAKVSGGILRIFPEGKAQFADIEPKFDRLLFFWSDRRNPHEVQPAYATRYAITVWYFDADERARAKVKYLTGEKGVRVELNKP

Usually pIC50 stands for the IC50 on a negative log10 scale, so that one unit is a factor of ten. A low value points to a large IC50. For orientation: Km means the concentration of substrate that gives half-maximal velocity. For orientation: IC50 means the concentration at which inhibition is half-maximal. For orientation: pKi means the negative decadic logarithm of the Ki, by convention in mol/L. A higher pKi goes with a low Ki.

T1 sequence (Q96KS0 163-403): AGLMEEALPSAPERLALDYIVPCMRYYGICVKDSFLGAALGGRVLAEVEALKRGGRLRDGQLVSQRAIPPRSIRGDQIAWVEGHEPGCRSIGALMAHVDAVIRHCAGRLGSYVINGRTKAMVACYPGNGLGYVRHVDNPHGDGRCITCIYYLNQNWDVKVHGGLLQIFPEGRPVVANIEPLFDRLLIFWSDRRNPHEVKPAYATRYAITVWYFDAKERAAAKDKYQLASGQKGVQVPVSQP

Take `CC(C)c1nn(Cc2ccc(-c3ccc(F)cc3)cc2F)c(=O)c(C(=O)NCC(=O)O)c1O` [Compound 1]: the pIC50 in assay [1] is 8.52; in assay [2], 7.89.

On to `O=C(O)CCC(=O)C(=O)O` [Compound 2-OG, 2-oxoglutarate], for which the values for the Km in assay [3], in assay [4] and in assay [5] were 310 nM, 660 nM and 560 nM, respectively.

As to `O=C(O)c1cnn(-c2nc3cc(C(F)(F)F)c(Cl)cc3[nH]2)c1` [Compound 2], the values for the pIC50 in assay [1], in assay [2] and in assay [6] were 7.96, 7.60 and 5.26, respectively.

For the molecule `O=C(O)CNC(=O)c1c(O)n(C2CCCCC2)c(=O)n(C2CCCCC2)c1=O` [Compound 3], the negative-log IC50 (pIC50) in assay [1] was 7.82; in assay [2], 8.10.

As for `Cc1nc(C(=O)NCC(=O)O)c(O)c2ccc(Oc3ccccc3)cc12` [Compound 4], the pIC50 in assay [1] was 8.70; in assay [2] it was 8.30; in assay [6], less than 5.00. Further, the “mechanism of inhibition of PHD2” value in assay [7] is listed as “compete with 2-OG substrate for binding at the enzyme active site”.

As for `O=C(O)CNC(=O)c1nc(Cl)c2ccccc2c1O` [Compound 5], the values for the pIC50 in assay [1], in assay [2] and in assay [6] were 7.80, 7.68 and less than 5.00, respectively.

As for `O=C(O)CNC(=O)C(=O)O` [Compound 6], in assay [1] (read-out: PHD1 IC50 (μM)—60 min incubation, 60 min preincubation, 25 nM PHD1, 2 μM 2-OG), the IC50 was 0.851 µM. The results for the pIC50 in assay [2] and in assay [6] were 6.73 and 6.72, respectively.

With `N#Cc1cn(-c2c[nH]n(-c3cc(N4CC(F)(F)C4)ncn3)c2=O)nn1` [Compound 7], the figures for the pIC50 in assay [1] and in assay [2] were 7.70 and 7.92, respectively. Besides, the pKi in assay [7] is 7.06. Also, in assay [7], the “mechanism of inhibition of PHD2” value is “compete with 2-OG substrate for binding at the enzyme active site”.

As to `O=C(NC(c1ccccc1)c1ccccc1)c1cnc(-c2cccnn2)nc1O` [Compound 8], the results for the pIC50 in assay [1], in assay [2] and in assay [6] were 7.70, 7.60 and 5.01, respectively.

Regarding `Cc1cccnc1CN1CCC2(CC1)C(=O)N(c1ccc(-c3ccccc3)cc1)c1ccccc12` [Compound 9], the pIC50 is 5.79 in assay [1], 5.69 in assay [2] and less than 5.00 in assay [6].
